The values that follow come from US11186579B2 (Gilead Sciences, Inc., priority 2018, dated 2021).

Structures are written as SMILES.

T1 sequence (P14902 whole entry): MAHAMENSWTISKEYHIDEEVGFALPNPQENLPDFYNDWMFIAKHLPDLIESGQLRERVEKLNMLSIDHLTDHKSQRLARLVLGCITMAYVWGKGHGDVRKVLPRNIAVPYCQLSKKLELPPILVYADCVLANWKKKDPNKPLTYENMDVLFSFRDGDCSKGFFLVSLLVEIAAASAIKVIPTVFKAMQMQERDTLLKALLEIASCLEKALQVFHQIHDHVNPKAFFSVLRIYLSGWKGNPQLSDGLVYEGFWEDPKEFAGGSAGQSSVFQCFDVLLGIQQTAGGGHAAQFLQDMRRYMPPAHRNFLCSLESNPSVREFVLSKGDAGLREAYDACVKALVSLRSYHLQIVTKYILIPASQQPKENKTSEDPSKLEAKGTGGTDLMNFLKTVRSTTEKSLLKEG

The assay concerns the target T1, IDO1 (Homo sapiens, UniProt P14902).
T1 construct: HeLa cells were treated with a test compound in the presence of IFNγ, which induces IDO1 expression; endogenous in cells; host or cells: H1-HeLa cells (ATCC #CRL-1958), IDO1 induced with IFNγ
Put plainly: Cell-Based (HeLa) Assay for Measurement of IDO1 Inhibition. As to conditions: H1-HeLa cells, IDO1 induced with IFNγ, 48 hour incubation, kynurenine in supernatant (absorbance 480 nm); geometric mean of minimum four determinations. The protocol: To measure IDO1 inhibition in tissue culture, HeLa cells were treated with a test compound in the presence of IFNγ, which induces IDO1 expression. Following incubation, cell supernatants were assayed for kynurenine levels, an indicator of IDO1 activity.
The following day, the test compounds were added in DMSO (0.5% final) at various concentrations, and IDO1 was inducibly expressed by the addition of 50 uL/well of 50 ng/mL of INFγ (Peprotech #300-02) in cell plating media. As a positive control, 50 uL of the cell plating media without IFNγ was added to several wells. Following a 48 hour incubation, the plates were spun down at 1,200 RPM for 5 min at 10° C. 65 μL/well of the supernatant was then transferred to new 384-well plates (Thermo #262160) that contained 10 uL/well of 30% TCA (Sigma #TO699), and the plates were sealed and incubated at 60° C. for 30 min. The plates were then centrifuged for 15 min at 2,000 RPM at 10° C. 40 μL/well of the supernatant was transferred to new 384-well plates (Thermo #262160) and was reacted with 40 μL/well of 2% (w/v) p-dimethlyaminobenzaldehyde (Sigma #156417) in glacial acetic acid (Sigma #A6283). The reaction was incubated at room temperature for 10 min and absorbance at 480 nm was read using a PerkinElmer Envision plate reader.
Data in Table 1 were normalized based on positive (-IFNγ) and negative (+IFNγ) controls and EC50 values were calculated from the fit of the dose-response curves to a four-parameter equation. All EC50 values represent geometric mean values of a minimum of four determinations.
`COCCOCc1nc2c(-c3ccc(C(F)(F)F)c(C(=O)Nc4ccc(F)cc4)c3)cccn2c1-c1cccc(F)c1F` [Example 1, 5-(3-(2,3-difluorophenyl)-2-((2-methoxyethoxy)methyl)imidazo[1,2-a]pyridin-8-yl)-N-(4-fluorophenyl)-2-(trifluoromethyl)benz amide] showed an EC50 of 8680 nM. Compound `Cc1ncc(-c2cccn3c(-c4cncc(F)c4)c(CO)nc23)cc1C(=O)Nc1ccc(F)cc1` [Example 2, N-(4-fluorophenyl)-5-(3-(5-fluoropyridin-3-yl)-2-(hydroxymethyl)imidazo[1,2-a]pyridin-8-yl)-2-methylnicotinamide] had an EC50 of 3610 nM. As to `O=C(Nc1ccc(F)cc1)c1cc(-c2cccn3c(-c4cccc(F)c4F)cnc23)ncc1C(F)(F)F` [Example 3, 2-(3-(2,3-difluorophenyl)imidazo[1,2-a]pyridin-8-yl)-N-(4-fluorophenyl)-5-(trifluoromethyl)isonicotinamide], the EC50 is 2390 nM. To `Cc1ccc(-c2cnc3c(-c4ccc(C(F)(F)F)c(C(=O)Nc5ccc(F)cc5)c4)cccn23)cn1` [Example 4, N-(4-fluorophenyl)-5-(3-(6-methylpyridin-3-yl)imidazo[1,2-a]pyridin-8-yl)-2-(trifluoromethyl)benzamide] belongs 2230 nM.

Take `Cc1cccc(-c2cnc3c(-c4ccc(C(F)(F)F)c(C(=O)Nc5ccc(F)cc5)c4)cccn23)n1` [Example 5]: the EC50 worked out at 1700 nM. Regarding `O=C(Nc1ccc(F)cc1)c1cc(-c2cccn3c(-c4ccncc4)cnc23)ccc1C(F)(F)F` [Example 6, N-(4-fluorophenyl)-5-(3-(pyridin-4-yl)imidazo[1,2-a]pyridin-8-yl)-2-(trifluoromethyl)benzamide], the EC50 was determined as 1420 nM. In turn, `NCc1nc2c(-c3ccc(C(F)(F)F)c(C(=O)Nc4ccc(F)cc4)c3)cccn2c1-c1cccc(F)c1F` [Example 7, 5-(2-(aminomethyl)-3-(2,3-difluorophenyl)imidazo[1,2-a]pyridin-8-yl)-N-(4-fluorophenyl)-2-(trifluoromethyl)benzamide] gave an EC50 of 1010 nM.

`Cc1cnc(-c2cccn3c(-c4cccc(F)c4F)cnc23)cc1C(=O)Nc1ccc(F)cc1` [Example 8, 2-(3-(2,3-difluorophenyl)imidazo[1,2-a]pyridin-8-yl)-N-(4-fluorophenyl)-5-methylisonicotinamide] had an EC50 of 945 nM. The EC50 values of the last two compounds are within 1.5-fold of each other. The same measure for `Cc1ncccc1-c1cnc2c(-c3ccc(C(F)(F)F)c(C(=O)Nc4ccc(F)cc4)c3)cccn12` [Example 9, N-(4-fluorophenyl)-5-(3-(2-methylpyridin-3-yl)imidazo[1,2-a]pyridin-8-yl)-2-(trifluoromethyl)benzamide]: 535 nM.

Compound `Cc1ccc(-c2cccn3c(-c4cccc(F)c4F)c(C)nc23)cc1C(=O)Nc1ccc(F)cc1` [Example 11, 5-(3-(2,3-difluorophenyl)-2-methylimidazo[1,2-a]pyridin-8-yl)-N-(4-fluorophenyl)-2-methylbenzamide] showed an EC50 of 436 nM. `Cc1ncc(-c2cccn3c(-c4cccc(F)c4F)cnc23)cc1C(=O)Nc1ccc(F)cc1` [Example 12, 5-(3-(2,3-difluorophenyl)imidazo[1,2-a]pyridin-8-yl)-N-(4-fluorophenyl)-2-methylnicotinamide] came in with an EC50 of 403 nM. The EC50 values of the last two compounds are within 1.5-fold of each other.

As for `Cc1ncc(-c2ccnn3c(-c4cccc(F)c4F)cnc23)cc1C(=O)Nc1ccc(F)cc1` [Example 13], the EC50 turned out to be 395 nM. To `Cc1ncc(-c2cccn3c(-c4cccc(F)c4F)c(CO)nc23)cc1C(=O)Nc1ccc(F)cc1` [Example 14, 5-(3-(2,3-difluorophenyl)-2-(hydroxymethyl)imidazo[1,2-a]pyridin-8-yl)-N-(4-fluorophenyl)-2-methylnicotinamide] belongs 372 nM; to `O=C(Nc1ccc(F)cc1)c1cc(-c2cccn3c(-c4cccnc4)c(CO)nc23)ccc1Cl` [Example 15, 2-chloro-N-(4-fluorophenyl)-5-(2-(hydroxymethyl)-3-(pyridin-3-yl)imidazo[1,2-a]pyridin-8-yl)benzamide], 272 nM. `Cc1ccc(-c2cccn3c(-c4cccc(F)c4F)cnc23)nc1C(=O)Nc1ccc(F)cc1` [Example 16, 6-(3-(2,3-difluorophenyl)imidazo[1,2-a]pyridin-8-yl)-N-(4-fluorophenyl)-3-methylpicolinamide]: a half-maximal response (EC50) required 168 nM. This EC50 is about 1.6-fold lower than that of the compound before. The same measure for `Cc1ccc(-c2cccn3c(-c4ccccc4)cnc23)cc1C(=O)Nc1ccc(F)cc1` [Example 17, N-(4-fluorophenyl)-2-methyl-5-(3-phenylimidazo[1,2-a]pyridin-8-yl)benzamide]: 168 nM; for `Cc1nc2c(-c3ccc(C(F)(F)F)c(C(=O)Nc4ccc(F)cc4)c3)cccn2c1-c1cccnc1` [Example 18, N-(4-fluorophenyl)-5-(2-methyl-3-(pyridin-3-yl)imidazo[1,2-a]pyridin-8-yl)-2-(trifluoromethyl)benzamide]: 165 nM. To `Cc1ccc(-c2cccn3c(-c4cccc(F)c4)cnc23)cc1C(=O)Nc1ccc(F)cc1` [Example 19, N-(4-fluorophenyl)-5-(3-(3-fluorophenyl)imidazo[1,2-a]pyridin-8-yl)-2-methylbenzamide] belongs 146 nM; to `O=C(Nc1ccc(F)cc1)c1cc(-c2cccn3c(-c4cccc(F)c4F)cnc23)cnc1C(F)(F)F` [Example 20, 5-(3-(2,3-difluorophenyl)imidazo[1,2-a]pyridin-8-yl)-N-(4-fluorophenyl)-2-(trifluoromethyl)nicotinamide], 89 nM. Compound `O=C(Nc1ccc(F)cc1)c1cc(-c2cccn3c(-c4cccnc4)c(CO)nc23)ccc1C(F)(F)F` [Example 21, N-(4-fluorophenyl)-5-(2-(hydroxymethyl)-3-(pyridin-3-yl)imidazo[1,2-a]pyridin-8-yl)-2-(trifluoromethyl)benzamide] displayed an EC50 of 89 nM. This counts as double-digit nanomolar. `O=C(Nc1ccc(F)cc1)c1cc(-c2cccn3c(-c4cccnc4F)cnc23)ccc1C(F)(F)F` [Example 22, N-(4-fluorophenyl)-5-(3-(2-fluoropyridin-3-yl)imidazo[1,2-a]pyridin-8-yl)-2-(trifluoromethyl)benzamide] showed an EC50 of 74 nM.

Compound `Cc1ccc(-c2cccn3c(-c4ccccc4F)cnc23)cc1C(=O)Nc1ccc(F)cc1` [Example 23, N-(4-fluorophenyl)-5-(3-(2-fluorophenyl)imidazo[1,2-a]pyridin-8-yl)-2-methylbenzamide] returned an EC50 of 73 nM. For the compound `O=C(Nc1ccc(F)cc1)c1nc(-c2cccn3c(-c4cccc(F)c4F)cnc23)ccc1C(F)(F)F` [Example 24, 6-(3-(2,3-difluorophenyl)imidazo[1,2-a]pyridin-8-yl)-N-(4-fluorophenyl)-3-(trifluoromethyl)picolinamide], the EC50 was 64 nM. With `O=C(Nc1ccc(F)cc1)c1cc(-c2cccn3c(-c4cccc(F)c4F)c(CO)nc23)ccc1C(F)(F)F` [Example 28, 5-(3-(2,3-difluorophenyl)-2-(hydroxymethyl)imidazo[1,2-a]pyridin-8-yl)-N-(4-fluorophenyl)-2-(trifluoromethyl)benzamide], the EC50 was determined as 40 nM. As to `Fc1ccc2[nH]c(-c3cc(-c4cccn5c(-c6cccc(F)c6F)cnc45)ccc3C(F)(F)F)nc2c1` [Example 36, 2-(5-(3-(2,3-difluorophenyl)imidazo[1,2-a]pyridin-8-yl)-2-(trifluoromethyl)phenyl)-5-fluoro-1H-benzo[d]imidazole], it took 713 nM to reach a half-maximal effect (EC50).

Broadly, the EC50 is the concentration needed to bring the measured effect to its halfway point. A higher EC50 goes with lower potency in that assay.
